Reference: patent US20050220779A1, “Integrin linked kinase modulation of macrophage activation” (priority 2001, published 2005)

What was measured:
[1] = tested on: C57BL/6 cells (primary peritoneal macrophages); experiment: LPS-IFN-γ-induced macrophage NO production (Griess nitrite assay), C57BL/6 cells; assay type: cell-based, mouse; conditions: 50 μM, 24 h; for NO release (%): relative to DMSO treated cells; for inhibition at 50 µM: Mus musculus, Peritoneal macrophage
Description: Isolation of primary mouse macrophages. Peritoneal exudate macrophages were isolated by peritoneal lavage with ice-cold sterile physiological saline 24 h after intraperitoneal injection of BALB/c and CB57BL/6 mice with 0.3 ml of sterile Zymosan A (1 mg/0.5 ml 0.9% saline). Cells were washed, resuspended in RPMI 1640 supplemented with 2 mM L-glutamine, 100 units/ml penicillin, 100 μg/ml streptomycin, and 5% FBS.
Treatment of primary macrophages and RAW 264.7 cells. Primary macrophages (1.5×10^5 cells/well) and RAW 264.7 (4×10^4 cells/well) cells were grown in 96-well plates (nitrite assay), or 6-well plates (2×10^6 cells/well) for measurement of iNOS and COX-2 expression. Following 3 h incubation, at 37 C, 5% CO2 (macrophages were allowed to attach) cells were stimulated with LPS (0.5 μg/ml) and IFN-γ (100 U/ml) in the absence or presence of various concentrations of ILK inhibitors (all treatments were replicated six times). Cells were incubated for an additional 24 h, and cell free culture supernatants from each well were collected for NO and cytokine determination. The remaining cells were stained with crystal violet to determine effect of the inhibitors on cell survival.
NO production. Following stimulation, the production of NO was determined by assaying culture supernatants for NO2^−, a stable reaction product of NO with molecular oxygen. Briefly, 100 μl of culture supernatant was reacted with an equal volume of Griess reagent at room temperature for 10 min. The absorbance at 550 nm was determined. All measurements were performed six times. The concentration of NO2^−was calculated by comparison with a standard curve prepared using NaNO2.
Effects of ILK inhibitors on LPS-IFN-γ-induced NO release. […] […] To compare the effect of the compounds across three different cell types, the NO release for each cell type was expressed relative to DMSO treated cells. […] For example, macrophages from Balb/c and C57BL/6 mice responded similarly to the treatment with the compounds.

[2] = biological target: T1, integrin linked kinase (full-length recombinant GST-ILK) (Homo sapiens, UniProt Q13418); experiment: ILK kinase inhibition assay (phosphocellulose filter, scintillation counting); assay type: biochemical
T1 construct: The target integrin linked kinase is a full-length recombinant protein expressed in sF9 insect cells; made in house; host or cells: baculovirus; virus amplified in Sf9, protein expressed in Hi5 insect cells
T1 sequence (Q13418 1-452): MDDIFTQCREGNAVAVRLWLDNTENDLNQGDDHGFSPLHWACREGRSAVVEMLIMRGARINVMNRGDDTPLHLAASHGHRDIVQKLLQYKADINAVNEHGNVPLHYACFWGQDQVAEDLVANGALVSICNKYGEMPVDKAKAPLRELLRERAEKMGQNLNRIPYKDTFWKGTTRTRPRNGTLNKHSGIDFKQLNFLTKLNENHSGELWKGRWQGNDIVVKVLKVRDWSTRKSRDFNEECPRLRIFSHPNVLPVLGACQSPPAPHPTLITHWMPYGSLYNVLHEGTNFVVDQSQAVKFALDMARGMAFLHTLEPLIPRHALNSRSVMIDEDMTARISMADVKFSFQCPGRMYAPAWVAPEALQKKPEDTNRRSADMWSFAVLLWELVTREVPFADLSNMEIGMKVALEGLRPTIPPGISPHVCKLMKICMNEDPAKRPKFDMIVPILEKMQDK
Description: Inhibition Assay: Compounds were received in lyophilized form and stored at −20° C. Stock solutions were made by weighing out the compounds and dissolving them in dimethyl sulfoxide (DMSO) to a standard concentration, usually 20 mM, and stored at −20° C. […] Diluted 100% DMSO was used as a negative control.
5 μl of each compound dilution were robotically pipetted to Costar serocluster plates maintaining the same plate format. All assays consisted of the following volumes: • 5 μl diluted compound • 10 μl enzyme preparation • 5 μl substrate • 5 μl assay ATP and were then incubated 15 min at room temperature.
From each reaction, 10 μl of reaction mix was spotted onto Millipore Multiscreen-PH opaque plates and washed 2×10 min in 1% phosphoric acid. The plates were dried for at 40° C. for 30 min, then the substrate phosphate complexes were quantitated by scintillation counting. These Millipore plates are in a 96 well format with immobilized P81 phosphocellulose membranes. Both the phosphorylated and non-phosphorylated form of the substrate bind to the membrane while ATP (unincorporated phosphate) is removed in the subsequent wash steps.
Integrin Linked Kinase: The target integrin linked kinase is a full-length recombinant protein expressed in sF9 insect cells by baculovirus infection. The ILK1 substrate is […]-amide.
Recombinant ILK protein was expressed using cultured insect cells and a baculovirus expression system.
A large scale plasmid preparation of the resulting transfer construct was made using a Qiagen Plasmid Midi Kit. This ILK transfer construct was then co-transfected with BaculoGold DNA (Pharmingen) into Sf9 insect cells (Invitrogen) and a high titre preparation of GST-ILK recombinant baculovirus was produced by amplification in Sf9 cells. Liter scale expression of GST-ILK recombinant protein was done in 1000 ml spinner flasks (Bellco) by infection of Hi5 insect cells (invitrogen) grown in Ex-Cell 400 Serum Free Media (JRH Biosciences) at a multiplicity of infection of approximately 5. The cells were harvested three days after infection and lysed in Hypotonic Lysis Buffer (HLB; 10 mM imidazole, 5 mM EDTA, 0.1% β-mercaptoethanol, 10 ug/ml PMSF, 1 mM benzamidine) by sonication. The lysate was centrifuged at 10,000×g for 20 min and the supernatant was discarded. The pellet was washed twice in HLB and then washed twice in High Salt Buffer (HSB; 500 mM NaCl, 10 mM imidazole, 5 mM EDTA, 0.1% β-mercaptoethanol, 10 ug/mI PMSF, 1 mM benzamidine). The pellet was then resuspended in DNAse-ATP Buffer (DAB; 10 mM MgCl2, 1 mM MnCl2, β-methyl aspartic acid, 2 mM NaF, 0.55 mg/ml ATP, 1 ug/ml DNAse l, 1% NP-40, 10 mM imidazole, 5 mM EDTA, 0.1% β-mercaptoethanol, 10 ug/ml PMSF, 1 mM benzamidine) and stirred for 30 min at room temperature, and then centrifuged at 10,000×g for 20 min. The pellet was resuspended in High Salt Detergent buffer (HDB; 1% NP-40, 1% Triton X-100, 500 mM NaCl, 10 mM imidazole, 5 mM EDTA, 0.1% β-mercaptoethanol, 10 ug/ml PMSF, 1 mM benzamidine), stirred for 30 min at room temperature, and then centrufuged at 10,000×g for 20 min. The pellet was then washed once in each of HDB, HSB, and HLB, centrifuging at 10,000×g each time. Finally, the pellet was resuspended in HLB.

ERK1 = ERK1 (Homo sapiens, UniProt P27361); experiment: Protein kinase selectivity, ERK1; assay type: biochemical
ERK1, sequence (P27361 whole entry, species assumed): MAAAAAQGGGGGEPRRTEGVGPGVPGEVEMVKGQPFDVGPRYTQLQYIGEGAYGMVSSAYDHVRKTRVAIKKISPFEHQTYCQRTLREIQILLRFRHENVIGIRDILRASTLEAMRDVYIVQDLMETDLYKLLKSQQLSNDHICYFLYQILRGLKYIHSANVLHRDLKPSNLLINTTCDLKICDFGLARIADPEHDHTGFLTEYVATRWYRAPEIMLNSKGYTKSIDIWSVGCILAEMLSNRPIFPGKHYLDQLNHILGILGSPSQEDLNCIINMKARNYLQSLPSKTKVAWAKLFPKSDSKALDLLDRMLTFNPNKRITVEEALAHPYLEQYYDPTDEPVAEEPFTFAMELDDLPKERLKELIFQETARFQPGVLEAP

Row | SMILES | NO release (%) [1] | inhibition at 50 µM [1] | inhibition at 0.1 µM ([2]; 0.1 μM, corrected against the maximum observed inhibition) | inhibition at 0.3 µM ([2]; 0.3 μM, corrected against the maximum observed inhibition) | inhibition at 0.7 µM ([2]; 0.7 μM, corrected against the maximum observed inhibition) | inhibition at 1.6 µM ([2]; 1.6 μM, corrected against the maximum observed inhibition) | inhibition at 4.1 µM ([2]; 4.1 μM, corrected against the maximum observed inhibition) | inhibition at 10.2 µM ([2]; 10.2 μM, corrected against the maximum observed inhibition) | inhibition at 25.6 µM ([2]; 25.6 μM, corrected against the maximum observed inhibition) | inhibition at 64 µM ([2]; 64.0 μM, corrected against the maximum observed inhibition) | inhibition at 160 µM ([2]; 160.0 μM, corrected against the maximum observed inhibition) | inhibition at 400 µM ([2]; 400.0 μM, corrected against the maximum observed inhibition) | Inhibition of ERK1 (in words) (ERK1) | inhibits ILK at [2]
1 | N=C(N)N/N=C/c1ccc(Cl)cc1Cl [KP-16735] | −7.0% | 114% | 13% | -1% | 4% | 18% | 32% | 69% | 85% | 99% | 102% | 99% | – | –
2 | Oc1ccc2c(c1)CC1NCCc3cc(O)c(O)c-2c31 (stereo not shown) [KP-21849, 5,6,6a,7-Tetrahydro-4H-dibenzo[de,g]quinoline-1,2,9-triol] | −8.0% | 118% | – | – | – | – | – | – | – | – | – | – | does not significantly inhibit | 2 µM
